{"source": "patent US20070099250A1", "about": "“Methods for treating proliferative diseases and for monitoring the effectiveness of treatment of proliferative diseases” (priority 2003, published 2007)", "key": {"[1]": {"tested_on": "Heat-shock 110 kD protein", "assay": "Inverse labeling-MS phosphopeptide analysis of HCT116 cell lysate treated with BPMI", "assay_type": "cell-based, human", "details": "HCT116 cells, 20 μM BPMI, 1.5 hours; phosphopeptide IEpSPKLER", "experimental": "(§1) Human colorectal cell line HCT116 cells are grown in 6-well plates. Prior to harvesting, the cells are treated with 20 μM of the Raf inhibitor BPMI and DMSO control for 1.5 hours, respectively. Cells are then rinsed with PBS, and lysed for 5 minutes at 4° C. in Doriano lysis buffer with 100 μg/mL Perfabloc/2 μg/mL aprotinin/2 μg/mL leupeptin/1 mM NaVO4/10 mM NaF. The supernatant of the lysates are collected after centrifugation at 3,000 rpm for 5 minutes. The protein concentration is determined using Bio-Rad reagent, and the lysates are frozen at −80° C. prior to fkrther processing and analysis.\n(§2) One μL of RNase A (20 mg/mL, Sigma, St Louis, Mo.) and 1 μL of RNase T1 (10 units/mL, Invitrogen, Carlsbad, Calif.) are added to each 1 mL of lysates (total 3 mg of HCT116-DMSO control and 3 mg of HCT116-BPMI, respectively), and incubated at 37° C. for half an hour to degrade RNAs. Proteins are denatured using 6 M guanidine HCl, followed by reduction with 20 mM 1,4-dithio-DL-threitol (DTT) at 58° C. for 40 minutes and alkylation with 40 mM iodoacetamide at room temperature for 30 minutes in the dark. Each protein solution is transferred to a Slide-A-Lyzer (10,000 MW cutoff, Pierce, Rockford, IL) dialysis cassette and dialyzed against 2 to 0 M urea/50 mM ammonium bicarbonate to remove small molecule impurities and buffer exchange to 50 mM ammonium bicarbonate. Proteolysis is carried out using modified, sequencing grade trypsin (Promega, Madison, Wiss.) at a 1:200 trypsin-to-protein ratio (wt:wt) in 50 mM ammonium bicarbonate at 37° C. overnight.\n(§3) The peptide digests are filtered through Centricon Filters (10,000 MW cutoff, Millipore, Bedford, Mass.) to remove large molecule impurities including detergents. Flow-through (peptides) is collected. Solvent and ammonium bicarbonate are subsequently removed by SpeedVac drying.\n(§4) d0- or d3-methanolic HCl (2M) (methyl esterification reagent) is prepared by adding 160 μL of acetyl chloride to 1 niL of anhydrous d0-methyl alcohol or d3-methyl d-alcohol drop wise while stirring. After 10 minutes, 1 mL of the methyl esterification reagent is added to 1.5 mg of lyophilized peptide mixture. The reaction is performed in parallel to two identical aliquots for every sample, one using d0-reagent and one using d3-reagent, respectively. The reaction is allowed to proceed at room temperature for 30 minutes. The excess reagents are removed by SpeedVac drying. Subsequently the peptide mixtures are reconstituted with water. The inverse labeling is achieved by mixing d0-control with d3-treated (BPMI) and d3-control with d0-treated.\n(§5) Enrichment of phosphopeptides is performed on a 2.1×30 mm IMAC column (POROS 20 MC, Applied Biosystems, Foster City, Calif.). Briefly, the column is washed with water, 100 mM EDTA in 1 M NaCl, followed by water and 1% acetic acid. The column is then activated with 100 mM FeCl3. […] of the inversely labeled methyl esterified peptide mixture (500 μg each form of d0 and d3) is dissolved in 1% acetic acid in 50% acetonitrile/water, and loaded onto iron-activated IMAC column. The unbound peptides are removed by washing with 1% acetic acid in 50% acetonitrile/water. The bound phosphopeptides are eluted with 2% ammonium hydroxide in 50% acetonitrile/water (pH approximately 9 to 10). Acetic acid is added to neutralize the eluent prior to SpeedVac drying. The phosphopeptide mixture is reconstituted with 0.1% formic acid and analyzed using capillary LC/MS, as described below.\n(§6) An Ultimate capillary/nano HPLC system (LC Packings, San Francisco, Calif.) with a Swichos micro column-switching module (LC Packings, San Francisco, Calif.) is used for analysis. Separation is carried out on a 0.18×150 mm capillary column, packed with 3 μm C18 stationary phase of 300-Å pore size (PepMap, LC Packings, San Francisco, Calif.), operating at a flow rate of 2 μL/min. Mobile phase A consists of 0.1% (v/v) formic acid in water and mobile phase B of 0.1% (v/v) formic acid in acetonitrile. […]"}, "Oncoprotein 18 [2]": {"tested_on": "Oncoprotein 18", "assay": "Inverse labeling-MS phosphopeptide analysis of HCT116 cell lysate treated with BPMI", "assay_type": "cell-based, human", "details": "for Change (treated/control) in phosphorylation / Change in phosphorylation, % down: HCT116 cells, 20 μM BPMI, 1.5 hours", "experimental": "as §1, §2, §3, §4, §5, §6"}, "Oncogene EMS1 [3]": {"tested_on": "Oncogene EMS1", "assay": "Inverse labeling-MS phosphopeptide analysis of HCT116 cell lysate treated with BPMI", "assay_type": "cell-based, human", "details": "HCT116 cells, 20 μM BPMI, 1.5 hours", "experimental": "as §1, §2, §3, §4, §5, §6"}, "Mouse fetuin": {"tested_on": "Mouse fetuin", "assay": "Inverse labeling-MS analysis of DU145 tumor tissue lysates, mouse tumor xenograft, in vivo BPMI", "details": "1 hour BPMI treatment, 200 mg/kg p.o., phosphopeptide VoxMHTQCHSTPDpSAEDVR", "experimental": "(§7) The phosphoproteome mapping method is further tested/applied to an in vivo study of the Raf inhibitor, BPMI (one-hour treatment, 200 mg/kg p.o.), in the analysis of tissue lysates of mouse tumor xenograft.\n(§8) The methyl esterification/IMAC procedure is successful in removing the blood contamination from the tissue samples. […] Additional changes in phosphorylation are also detected which includes oncogene EMS1, mouse fetuin and Epithelial-cadherin (see Table 2)."}, "[4]": {"tested_on": "Epithelial-cadherin (mouse/human)", "assay": "Inverse labeling-MS analysis of DU145 tumor tissue lysates, mouse tumor xenograft, in vivo BPMI", "details": "1 hour BPMI treatment, 200 mg/kg p.o., phosphopeptide MRDWVIPPIpSCPENEK", "experimental": "as §7, §8"}, "Oncoprotein 18 [5]": {"tested_on": "Oncoprotein 18", "assay": "Inverse labeling-MS analysis of DU145 tumor tissue lysates, mouse tumor xenograft, in vivo BPMI", "details": "for Change (treated/control) in phosphorylation / Change in phosphorylation, % down: DU145 tumor tissue, 1 hour BPMI treatment, 200 mg/kg p.o.", "experimental": "as §7, §8"}, "Oncogene EMS1 [6]": {"tested_on": "Oncogene EMS1", "assay": "Inverse labeling-MS analysis of DU145 tumor tissue lysates, mouse tumor xenograft, in vivo BPMI", "details": "1 hour BPMI treatment, 200 mg/kg p.o.", "experimental": "as §7, §8"}, "[7]": {"tested_on": "OP18 Ser25 phosphorylation", "assay": "Western blot analysis of Raf-inhibitor-treated HCT116 cell lysates, phospho-Ser25 specific OP18 antibody", "assay_type": "cell-based, human", "experimental": "HCT1 16 cells are prepared. as in Example 1 above and treated with a Raf inhibitor (BPMI) for 1.5 hr. Cells are lysed in Incomplete Laemmli buffer (0.1 IM Tris.Cl pH 7.0, 4% SDS, 10% glycerol), and passed through a syringe fitted with 25 gauge needle to break apart genomic DNA. The lysate is boiled for 5 minutes, and loaded onto 10% SDS-PAGE gel. Proteins in the SDS-PAGE gel are then transferred to nitrocellulose membrane. The membrane is blocked with 5% milk for 1 hr, and incubated with the an antibody specific for Ser^25 phosphorylated OP18 for an additional hour. The phosphor-Ser^25 specific OP18 antibody is raised in rabbit using standard techniques and purification known in the art. The amino acid sequence used to generate phosphor-Ser^25 specific OP18 antibody is ELILpSPRSKESVPEFP (SEQ ID NO:_). The blot is washed three times with TBST 15 minutes each, and then incubated with anti-rabbit HRP-conjugated antibody for 1 hr. The blot is washed three times with TBST 15 minutes each, and the antibody bound proteins are labeled using SuperSignal West Dura Extended Duration substrate (Piece Biotechnologies, Rockford, Ill.). The phosphorylated OP18 proteins are detected via exposing the blot through a film (Eastman Kodak, Rochester, N.Y.).\n(§9) The treatment of HCT116 cells with BPMI leads to the inhibition of OP18 phosphorylation at Ser^25 residue (data not shown). […] Additional data also provides that BPMI inhibits OP18 Ser^25 phosphorylation with an IC50 of approximately 5 μM. Thus, it appears that both MAPK and OP18 Ser^25 phosphorylation are inhibited at a similar level for a given dose of a raf inhibitor."}, "[8]": {"tested_on": "MAPK pathway in HCT116 cells", "assay": "Inhibition of MAPK pathway in HCT116 cells", "assay_type": "cell-based, human", "experimental": "as §9"}, "[9]": {"details": "phosphopeptide LPS*pSPVYEDAASFK"}, "[10]": {"details": "phosphopeptide T*QpTPPVpSPAPQPTEER"}}, "data": [{"smiles": "CC(C)(C)c1ccc(Nc2ncc(Cc3ccncc3)c3ccccc23)cc1", "note": "[BPMI, 1-(4-t-butylanilino)-4-[(pyridin-4-yl)-methyl]-isoguinoline]", "values": [{"measurement": "Change (treated/control) in phosphorylation", "setting": "[1]", "result": 0.7}, {"measurement": "Change in phosphorylation, % down", "setting": "[1]", "result": "(30% down)"}, {"measurement": "Op18 Ser25 phosphorylation upon BPMI treatment (FIG. 1)", "setting": "Oncoprotein 18 [2]; HCT116 cell lysate, inverse labeling-MS", "result": "Down-regulation"}, {"measurement": "Change (treated/control) in phosphorylation", "setting": "Oncoprotein 18 [2]; phosphopeptide ASGQAFELILpSPR", "result": 0.4}, {"measurement": "Change in phosphorylation, % down", "setting": "Oncoprotein 18 [2]; phosphopeptide ASGQAFELILpSPR", "result": "(60% down)"}, {"measurement": "Change (treated/control) in phosphorylation", "setting": "Oncoprotein 18 [2]; phosphopeptide SKESVPEFPLpSPPK", "result": 0.6}, {"measurement": "Change in phosphorylation, % down", "setting": "Oncoprotein 18 [2]; phosphopeptide SKESVPEFPLpSPPK", "result": "(40% down)"}, {"measurement": "Change (treated/control) in phosphorylation", "setting": "Oncogene EMS1 [3]; [9]", "result": 0.8}, {"measurement": "Change in phosphorylation, % down", "setting": "Oncogene EMS1 [3]; [9]", "result": "(20% down)"}, {"measurement": "Change (treated/control) in phosphorylation", "setting": "Oncogene EMS1 [3]; [10]", "result": 0.7}, {"measurement": "Change in phosphorylation, % down", "setting": "Oncogene EMS1 [3]; [10]", "result": "(30% down)"}, {"measurement": "Change (treated/control) in phosphorylation", "setting": "Mouse fetuin", "result": 0.6}, {"measurement": "Change in phosphorylation, % down", "setting": "Mouse fetuin", "result": "(40% down)"}, {"measurement": "Change (treated/control) in phosphorylation", "setting": "[4]", "result": 0.5}, {"measurement": "Change in phosphorylation, % down", "setting": "[4]", "result": "(50% down)"}, {"measurement": "Change (treated/control) in phosphorylation", "setting": "Oncoprotein 18 [5]; phosphopeptide ASGQAFELILpSPR", "result": 0.4}, {"measurement": "Change in phosphorylation, % down", "setting": "Oncoprotein 18 [5]; phosphopeptide ASGQAFELILpSPR", "result": "(60% down)"}, {"measurement": "Change (treated/control) in phosphorylation", "setting": "Oncoprotein 18 [5]; phosphopeptide SKESVPEFPLpSPPK", "result": 0.8}, {"measurement": "Change in phosphorylation, % down", "setting": "Oncoprotein 18 [5]; phosphopeptide SKESVPEFPLpSPPK", "result": "(20% down)"}, {"measurement": "OP18 Ser25 phosphorylation in vivo (FIG. 2B)", "setting": "Oncoprotein 18 [5]; tumor tissue DU145, methyl esterification/IMAC", "result": "down-regulation"}, {"measurement": "Change (treated/control) in phosphorylation", "setting": "Oncogene EMS1 [6]; [9]", "result": 0.7}, {"measurement": "Change in phosphorylation, % down", "setting": "Oncogene EMS1 [6]; [9]", "result": "(30% down)"}, {"measurement": "Change (treated/control) in phosphorylation", "setting": "Oncogene EMS1 [6]; [10]", "result": 0.6}, {"measurement": "Change in phosphorylation, % down", "setting": "Oncogene EMS1 [6]; [10]", "result": "(40% down)"}, {"measurement": "OP18 phosphorylation at Ser25 residue, Western blot", "setting": "[7]; HCT116 cells, 1.5 hr treatment (data not shown)", "result": "inhibition"}, {"measurement": "Phosphorylation seen at Ser25 residue of the OP18 protein, Western blot", "setting": "[7]; HCT116 cells, at 10 μM", "result": "almost no phosphorylation"}, {"measurement": "IC50", "setting": "[7]; additional data, read-out: IC50 for inhibition of OP18 Ser25 phosphorylation", "result": "~5", "unit": "µM"}, {"measurement": "IC50", "setting": "[8]", "result": 5.3, "unit": "µM"}]}]}
